For test [1], the system named is IM-95 (Gastric Carcinoma). The test can be described thus: Bliss excess, mean over the matrix (fraction); higher = more synergy. In short, it runs like this: (§1)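 Bliss excess equals the observed combination effect minus the expected value EA + EB − EA·EB, where EA and EB are the effects of each agent alone. Combination Emax is the second-highest inhibition within the matrix. Inhibition was scaled from CellTiter-Glo 2.0 luminescence, with 0 set by vehicle wells and 1 by blank wells, after 72 hours of two-drug dosing of cells plated in 1536-well plates.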

Test [2] concerns SK-GT-2 (Gastric Carcinoma). Described as above. In short, it runs like this: as §1

For the compound `Cc1c2c(nn1C)CSCc1cc(n(C)n1)CSc1cc(c3ccccc3c1)OCCCc1c(C(=O)O)n(C)c3c-2c(Cl)ccc13` [AZD5991] + Cc1cc2ncnn2cc1Nc1ncc2c(n1)n(C1CCOCC1)c(=O)n2C [AZD7648] (first compound max 1 µM, 7x7, partner max 10 µM), the Bliss excess in test [1] is -0.0615; in test [2], 0.0164.
Turning to `Cc1c2c(nn1C)CSCc1cc(n(C)n1)CSc1cc(c3ccccc3c1)OCCCc1c(C(=O)O)n(C)c3c-2c(Cl)ccc13` [AZD5991] + Cn1cnc2c(F)c(Nc3ccc(Br)cc3Cl)c(C(=O)NOCCO)cc21 [Selumetinib] (first compound max 1 µM, 7x7, partner max 3 µM), the Bliss excess worked out at 0.0906 in test [1] and 0.016 in test [2].
With `C[C@@H]1COCCN1c1cc(C2([S@](C)(=N)=O)CC2)nc(-c2ccnc3[nH]ccc23)n1` [AZD6738] + O=C(c1cc(Cc2n[nH]c(=O)c3ccccc23)ccc1F)N1CCN(C(=O)C2CC2)CC1 [Olaparib] (first compound max 10 µM, 7x7, partner max 10 µM), the Bliss excess in test [1] came out at 0.031; in test [2], 0.0148.
For the compound `Cc1cc2ncnn2cc1Nc1ncc2c(n1)n(C1CCOCC1)c(=O)n2C` [AZD7648] + C=CCn1c(=O)c2cnc(Nc3ccc(N4CCN(C)CC4)cc3)nc2n1-c1cccc(C(C)(C)O)n1 [AZD1775] (first compound max 10 µM, partner max 1 µM), the Bliss excess is 0.0212 in test [1] and -0.047 in test [2].
For `Cc1cc2ncnn2cc1Nc1ncc2c(n1)n(C1CCOCC1)c(=O)n2C` [AZD7648] + CCN(CCO)CCCOc1ccc2c(Nc3cc(CC(=O)Nc4cccc(F)c4)[nH]n3)ncnc2c1 [AZD2811] (first compound max 10 µM, 7x7, partner max 1 µM), the results for the Bliss excess in test [1] and in test [2] were 0.0835 and 0.0137, respectively.
On the same counts, the results for `Cc1cc2ncnn2cc1Nc1ncc2c(n1)n(C1CCOCC1)c(=O)n2C` [AZD7648] + CN(C)CCCOc1ccc(-c2ccc3ncc4c(c3c2)n(C2CCOCC2)c(=O)n4C)cn1 [AZD0156] (first compound max 10 µM, 7x7, partner max 1 µM) are 0.0121 and -0.0011.
The corresponding values for `Cc1cc2ncnn2cc1Nc1ncc2c(n1)n(C1CCOCC1)c(=O)n2C` [AZD7648] + C[C@@H]1COCCN1C2=NC(=NC(=C2)C3(CC3)[S@](=N)(=O)C)C4=C5C=CNC5=NC=C4 [AZD6738] (first compound max 10 µM, 7x7, partner max 10 µM) are 0.0163 and -0.0034.
`Cc1cc2ncnn2cc1Nc1ncc2c(n1)n(C1CCOCC1)c(=O)n2C` [AZD7648] + O=C(c1cc(Cc2n[nH]c(=O)c3ccccc23)ccc1F)N1CCN(C(=O)C2CC2)CC1 [Olaparib] (first compound max 10 µM, 7x7, partner max 10 µM): the Bliss excess in test [1] is -0.0303; in test [2] it was -0.0297.
Consider `COc1cccc2c1C(=O)c1c(O)c3c(c(O)c1C2=O)C[C@@](O)(C(=O)CO)C[C@@H]3O[C@H]1C[C@H](N)[C@H](O)[C@H](C)O1` [Doxorubicin] + Cc1cc2ncnn2cc1Nc1ncc2c(n1)n(C1CCOCC1)c(=O)n2C [AZD7648] (first compound max 1 µM, 7x7, partner max 10 µM), for which the Bliss excess in test [1] was 0.016; in test [2] it was -0.0051.
Turning to `COc1cccc(OCCCN)c1-c1cc(Nc2cnc(C#N)cn2)n[nH]1` [Prexasertib] + C=CCn1c(=O)c2cnc(Nc3ccc(N4CCN(C)CC4)cc3)nc2n1-c1cccc(C(C)(C)O)n1 [AZD1775] (first compound max 1 µM, partner max 1 µM), the values for the Bliss excess in test [1] and in test [2] were 0.0876 and 0.0286, respectively.
Regarding `COc1cccc(OCCCN)c1-c1cc(Nc2cnc(C#N)cn2)n[nH]1` [Prexasertib] + CCc1c2c(nc3ccc(O)cc13)-c1cc3c(c(=O)n1C2)COC(=O)[C@]3(O)CC [SN-38] (first compound max 1 µM, 7x7, partner max 0.3 µM), the Bliss excess in test [1] amounted to 0.0026; in test [2], 0.034.
In the case of `COc1cccc(OCCCN)c1-c1cc(Nc2cnc(C#N)cn2)n[nH]1` [Prexasertib] + CN(C)CCCOc1ccc(-c2ccc3ncc4c(c3c2)n(C2CCOCC2)c(=O)n4C)cn1 [AZD0156] (first compound max 1 µM, 7x7, partner max 1 µM), the Bliss excess in test [1] was 0.0384; in test [2], -0.0519.
As to `COc1cccc(OCCCN)c1-c1cc(Nc2cnc(C#N)cn2)n[nH]1` [Prexasertib] + C[C@@H]1COCCN1C2=NC(=NC(=C2)C3(CC3)[S@](=N)(=O)C)C4=C5C=CNC5=NC=C4 [AZD6738] (first compound max 1 µM, 7x7, partner max 10 µM), the Bliss excess is 0.0244 in test [1] and -0.0043 in test [2].
As for `COc1cccc(OCCCN)c1-c1cc(Nc2cnc(C#N)cn2)n[nH]1` [Prexasertib] + Cc1cc2ncnn2cc1Nc1ncc2c(n1)n(C1CCOCC1)c(=O)n2C [AZD7648] (first compound max 1 µM, 7x7, partner max 10 µM), the results for the Bliss excess in test [1] and in test [2] were -0.0163 and -0.0454, respectively.
On the same counts, the results for `COc1cccc(OCCCN)c1-c1cc(Nc2cnc(C#N)cn2)n[nH]1` [Prexasertib] + O=C(c1cc(Cc2n[nH]c(=O)c3ccccc23)ccc1F)N1CCN(C(=O)C2CC2)CC1 [Olaparib] (first compound max 1 µM, 7x7, partner max 10 µM) are -0.0102 and -0.0472.
As to `COc1cc2c(cc1OCCCCCOc1cc3c(cc1OC)C(=O)N1C=C(C)C[C@H]1C=N3)N=C[C@@H]1CC(C)=CN1C2=O` [SG3199] + O=C(c1cc(Cc2n[nH]c(=O)c3ccccc23)ccc1F)N1CCN(C(=O)C2CC2)CC1 [Olaparib] (first compound max 0.001 µM, 7x7, partner max 10 µM), the Bliss excess was -0.0392 in test [1] and -0.0066 in test [2].
As for `CCc1c2c(nc3ccc(O)cc13)-c1cc3c(c(=O)n1C2)COC(=O)[C@]3(O)CC` [SN-38] + CN(C)CCCOc1ccc(-c2ccc3ncc4c(c3c2)n(C2CCOCC2)c(=O)n4C)cn1 [AZD0156] (first compound max 0.3 µM, 7x7, partner max 1 µM), the figures for the Bliss excess in test [1] and in test [2] were 0.0208 and 0.0054, respectively.
As to `C[C@@H](c1ccc2nccn2c1)n1nnc2ncc(-c3cnn(C)c3)nc21` [Savolitinib] + CN(CC[C@H](CSC1=CC=CC=C1)NC2=C(C=C(C=C2)S(=O)(=O)NC(=O)C3=CC=C(C=C3)N4CCC(CC4)[C@H](C5=CC=CC=C5C6=CC=C(C=C6)Cl)O)S(=O)(=O)C(F)(F)F)CCO [AZD4320] (first compound max 1 µM, 7x7, partner max 1 µM), the Bliss excess is -0.0477 in test [1] and -0.0294 in test [2].
`CC(=O)Nc1cccc(-n2c(=O)n(C3CC3)c(=O)c3c(Nc4ccc(I)cc4F)n(C)c(=O)c(C)c32)c1` [Trametinib] + Cc1nc(-c2cn3c(n2)-c2ccc(-c4cnn(C(C)(C)C(N)=O)c4)cc2OCC3)n(C(C)C)n1 [Taselisib] (first compound max 1 µM, 7x7, partner max 10 µM): the Bliss excess in test [1] was 0.196; in test [2], 0.134.
On the same counts, the results for `CC1(C)CCC(CN2CCN(c3ccc(C(=O)NS(=O)(=O)c4ccc(NCC5CCOCC5)c([N+](=O)[O-])c4)c(Oc4cnc5[nH]ccc5c4)c3)CC2)=C(c2ccc(Cl)cc2)C1` [Venetoclax] + C1CN(CCC1(C(=O)N[C@@H](CCO)C2=CC=C(C=C2)Cl)N)C3=NC=NC4=C3C=CN4 [Capivasertib] (first compound max 1 µM, 7x7, partner max 3 µM) are -0.0067 and -0.0211.

Source of the values: the supplement of paper PMC11061612.
